Test results reported in patent US20230024584A1, “ANTI-CANCER COMPOSITIONS AND METHODS” (University of Kentucky Research Foundation, priority 2019, published 2023).

What was measured:
Assay type in all cases: cell-based
[1] = test system: SUM19, MCF-7, MDA-MB-453 and 4T1luc cells; assay: Suspension culture sphere formation assay, breast cancer cells; details: 1.25, 2.5 or 5 μM, 10 days
Protocol: With reference to FIGS. 24A and 24B, the effect of lomitapide treatment on cancer stem cell-like property of breast cancer cells was further studied. Initially, 2500 breast cancer SUM19, MCF-7, MDA-MB-453 or 4T1^luc cells were seeded into […] 24-well plates; meanwhile, vehicle control (DMSO) or lomitapide (final concentration: 1.25, 2.5 or 5 μM) were added into corresponding wells. After 10-days continuous culture, the final spheres formed were imaged and counted under an inverted phase-contrast microscope. FIG. 24A includes representative sphere images from each treatment groups. FIG. 24B includes the quantitation of sphere numbers (mean±standard deviation, n=3). * p<0.05, compared to vehicle control (negative control) treatment group.

[2] = test system: SUM159, LM2, MCF-7, MB-MDA-453, 4T1 and 4T1luc cells; assay: MTT assay, breast cancer cell lines; details: 1.25, 2.5 and 5 μM; 24, 48, 72 h
Protocol: With reference to FIGS. 21A-21F, MTT assays were performed to determine the effect of lomitapide treatment on various breast cancer cell lines. Initially, 2500 SUM159 or LM2 cells, 5000 MCF-7 or MB-MDA-453 cells, 1000 4T1 or 4T1^1uc cells were seeded into 96-well plates. After overnight culture, vehicle (DMSO) or lomitapide (final concentration: 1.25, 2.5 and 5 μM) were added into the corresponding wells. After 24 h, 48 h, and 72 h incubation, the culture media were aspirated off and 50 μl of 0.5 mg/mL of MTT containing medium was added into each well. After 3 h incubation, 200 μl of DMSO were added into each well. The OD value of each well was read under the wavelength of 570 nm. The results are presented as mean±standard deviation (n=6) * p<0.05, compared to vehicle control (negative control) treatment group.

PC9GR4 and A549 cells [3] = assay: Apoptosis (7-AAD/APC-annexin V flow cytometry), lung cancer cells; details: 1.25, 2.5 or 5 μM, 48 h
Protocol: (§1) With reference to FIGS. 29A and 29B, studies were also conducted to determine the effect of lomitapide treatment on apoptosis of lung cancer cells. Initially, 0.1-0.3 million PC9GR4 or A549 cells were seeded into 6 cm cell culture dishes and cultured overnight. Vehicle control (DMSO) or lomitapide (final concentration: 1.25, 2.5 or 5 μM) was added then into corresponding dishes. After 48 h incubation, the cells were harvested, stained by 7-AAD/APC-annixin V and analyzed by flow cytometry. The results are presented as mean±standard deviation (n=3). * p<0.05, compared to vehicle control (negative control) treatment group.

PC9GR4 and A549 cells [4] = assay: Sphere formation assay, lung cancer cells; details: 1.25, 2.5 or 5 μM, 10 days
Protocol: With reference to FIGS. 30A and 30B, studies were also conducted to determine the effect of lomitapide treatment on the cancer stem cell-like property of lung cancer cells. Initially, 2500 lung cancer PC9GR4 or A549 cells were seeded into […] 24-well plates; meanwhile, vehicle control (DMSO) or lomitapide (final concentration: 1.25, 2.5 or 5 μM) were added into corresponding wells. After 10-days continuous culture, the final spheres formed were imaged and counted under an inverted phase-contrast microscope. FIG. 30A includes representative sphere images from each treatment groups. FIG. 30B includes the quantitation of sphere numbers (mean±standard deviation, n=3). * p<0.05, compared to vehicle control (negative control) treatment group.

[5] = test system: H1975, PC9, PC9GR4 and H460 cells; assay: Clonogenic assay, lung cancer cell lines; details: 1.25, 2.5 or 5 μM for 72 h, then 10 days culture
Protocol: Clonogenic assays were also performed to determine the effect of lomitapide treatment on various lung cancer cell lines, with data reflected in FIGS. 28A-28E. Initially, 100 H1975, PC9, PC9GR4, or H460 cells were seeded into 6-cm cell culture dishes. After overnight culture, vehicle control (DMSO) or lomitapide (final concentration: 1.25, 2.5 or 5 μM) were added into the corresponding dishes. After 72 h culture, the DMSO- or lomitapide-containing media were removed and the fresh culture media were added in followed by additional 10 days culture. The culture media were replaced with fresh media every three days. At the end of cell culture, the final clones in dishes were fixed by 4% paraformaldehyde and stained with crystal violet. FIG. 28A includes representative images from each treatment groups. FIGS. 28B-28E include quantitation of clone numbers (mean±standard deviation, n=3). * p<0.05, compared to vehicle control (negative control) treatment group.

breast cancer cells = assay: Cell cycle analysis, breast cancer cells; details: 5 μM; 24, 48 and 72 h
Protocol: Initially, 0.1˜0.3 million of breast cancer cells were seeded into 6 cm culture dish and cultured overnight; then, the culture media were switched into FBS free medium for serum-starvation for 24 h for cell synchronization. After synchronization, the culture media were changed into FBS-containing medium and vehicle control (DMSO) or lomitapide (final concentration: 5 μM) were added into corresponding dishes. After 24, 48 and 72 h culture, cells were harvested, fixed by ice-cold ethanol, stained by PI for flow cytometry analysis of cell cycle. The results are presented as mean±standard deviation (n=3). * p<0.05, compared to vehicle control (negative control) treatment group.

[6] = test system: HCT116, HT29, DLD1, PT130 and SW480 cells; assay: MTT assay, colon cancer cell lines; details: 1.25, 2.5 and 5 μM; 24, 48, 72 h
Protocol: With reference to FIGS. 31A-31F, studies were conducted to determine the effect of lomitapide treatment on colon cancer cell growth as determined by the MTT assay. Initially, 1000 HCT116, HT29, DLD1, PT130, or SW480 cells were seeded into 96-well plates. After overnight culture, vehicle (DMSO) or lomitapide (final concentration: 1.25, 2.5 and 5 μM) were added into the corresponding wells. After 24 h, 48 h and 72 h incubation, the culture media were aspirated off and 50 μL of 0.5 mg/mL of MTT containing medium was added into each well. After 3h incubation, 200 μL of DMSO were added into each well. The OD value of each well was read under the wavelength of 570 nm. The results are presented as mean±standard deviation (n=6) * p<0.05, compared to vehicle control (negative control) treatment group.

[7] = test system: MCF-7, LM2 and 4T1luc cells; assay: Apoptosis (7-AAD/APC-annexin V flow cytometry), breast cancer cells; details: 1.25, 2.5 or 5 μM, 48 h
Protocol: as §1, with “26A-26C,” for “29A and 29B,”, “breast” for “lung”, “MCF-7, LM2” for “PC9GR4”, “4T1^luc” for “A549”

lomitapide
cancer stem cell-like property (sphere numbers) [1]: significantly reduces cancer stem cell-like property
breast cancer cell growth (MTT) [2]: significantly reduces breast cancer cell growth
apoptosis (PC9GR4 and A549 cells [3]): induces apoptosis
cancer stem cell-like property (sphere numbers) (PC9GR4 and A549 cells [4]): significantly reduces cancer stem cell-like property
lung cancer cell growth (clone numbers) [5]: significantly reduces lung cancer cell growth
cell cycle distribution (breast cancer cells): significant G1 phase cell cycle arrest
colon cancer cell growth (MTT) [6]: significantly reduces colon cancer cell growth
apoptosis [7]: induces apoptosis
